This is an account of results in publication PMC10977697 (PLOS ONE, 2024).

Where no end group is shown, it is not given here.

The first assay relates to CD16A. As to the kind of experiment: Spot phage ELISA, CD16A. It counts as binding, human. The conditions noted are these: spot phage ELISA signal-to-noise on CD16A. (An ELISA detects its analyte on a solid surface through an enzyme-linked reagent.)
“GCQYIETECKQDSDCLAGCVCWVSPWCG (disulfide (positions not given here)) [CD16A EETI-II 44]” gave a S/N of 20.5.
Still for that read-out and setting: the value for “GCPWWWVVSCKQDSDCLAGCVCYLQENCG (disulfide (positions not given here)) [CD16A EETI-II 14]” was 17.8; that for “GCDAILWTCKQDSDCLAGCVCSEEDLCG (disulfide (positions not given here)) [CD16A EETI-II 7]” was 18.7; that for “GCDAKLQQCKQDSDCLAGCVCEEAVICG (disulfide (positions not given here)) [CD16A EETI-II 2]” was 22.9.
In turn, “GPTQSHGGSCGGIGYSGPTVCASGTTCQVLNPYLSLCLPGAS (disulfide (positions not given here)) [CD16A CBD 3]” yielded a S/N of 17.5.
In turn, “GPTQSEGGQCGGIGYSGPTVCASGTTCQVLGPSWSFCLPGAS (disulfide (positions not given here)) [CD16A CBD 11]” gave a S/N of 4.9.
The sequence “GCDEMLYRCKQDSDCLAGCVCQEQDVCG (disulfide (positions not given here)) [CD16A EETI-II 5]” had a S/N of 20.0.
In turn, “GCQWIQVNCKQDSDCLAGCVCWVSPYCG (disulfide (positions not given here)) [CD16A EETI-II 37]” gave a S/N of 5.8.
“GCDEILHKCKQDSDCLAGCVCDEQQLCG (disulfide (positions not given here)) [CD16A EETI-II 10]” gave a S/N of 17.2.
Regarding “GCDDPWGGEMCKQDSDCLAGCVCGPNGFCG (disulfide (positions not given here)) [CD16A EETI-II 16]”, the S/N turned out to be 23.6.
With “GCAVDPWGKQMTCKQDSDCLAGCVCGPNGFC (disulfide (positions not given here)) [CD16A EETI-II 33]”, the S/N came out at 19.5.
“GCDDILRACKQDSDCLAGCVCEEETLCG (disulfide (positions not given here)) [CD16A EETI-II 9]” returned a S/N of 17.8.
On to “GCQFMKTECKQDSDCLAGCVCYESPWCG (disulfide (positions not given here)) [CD16A EETI-II 22]”, for which the S/N was determined as 19.0.
Sequence “GPTQSEGGSCGGIGYSGPTVCASGTTCQVLGPYISLCLPGAS (disulfide (positions not given here)) [CD16A CBD 2]” came in with a S/N of 18.5.
On to “GCAKDPWGQPMSCKQDSDCLAGCVCGPNGFC (disulfide (positions not given here)) [CD16A EETI-II 27]”, for which the S/N came out at 20.7.
On the same count and under the same terms, the value for “GCIETIDHCKQDSDCLAGCVCQPMRRCG (disulfide (positions not given here)) [CD16A EETI-II 13]” was 20.1.
The sequence “GCADTPWQGRCKQDSDCLAGCVCGPNGFCG (disulfide (positions not given here)) [CD16A EETI-II 21]” came in with a S/N of 25.5.
In turn, “GCQWVQMTCKQDSDCLAGCVCWHSPWCG (disulfide (positions not given here)) [CD16A EETI-II 42]” gave a S/N of 17.3.
“GPTQSPEGSCGGIGYSGPTVCASGTTCQVLNPYLSLCLPGAS (disulfide (positions not given here)) [CD16A CBD 8]” gave a S/N of 14.2.
Take “GCDDILRACKQDSDCLAGCVCEEETLCG (disulfide (positions not given here)) [CD16A EETI-II 6]”: the S/N was 19.9.
“GCQDPWGEAMQCKQDSDCLAGCVCGPNGFCG (disulfide (positions not given here)) [CD16A EETI-II 15]” yielded a S/N of 25.7.
“GCGSKNGMNMCKQDSDCLAGCVCDPWGQCD (disulfide (positions not given here)) [CD16A EETI-II 31]” gave a S/N of 15.5.
“GPTQSWDGQCGGIGYSGPTVCASGTTCQVLSPYLSYCLPGAS (disulfide (positions not given here)) [CD16A CBD 6]” showed a S/N of 15.7.
In turn, “GCRGIDWWPCKQDSDCLTGCVCGPNGFCG (disulfide (positions not given here)) [CD16A EETI-II 24]” displayed a S/N of 11.1.
For the sequence “GCEWMAIPCKQDSDCLAGCVCWESPYCG (disulfide (positions not given here)) [CD16A EETI-II 40]”, the S/N turned out to be 20.1.
In the case of “GPTQSEGGQCGGIGYSGPTVCASGTTCQVLGPMWSFCLPGAS (disulfide (positions not given here)) [CD16A CBD 10]”, the S/N is 5.9.
The same measure, in the same setting: the value for “GCQWAQLSWDHCKQDSDCLAGCVCWQSPYCG (disulfide (positions not given here)) [CD16A EETI-II 35]” was 16.7.
In the case of “GCDYKLWRCKQDSDCLAGCVCEESQVCG (disulfide (positions not given here)) [CD16A EETI-II 3]”, the S/N stood at 21.6.
On to “GCMDTPWKGACKQDSDCLAGCVCGPNGFCG (disulfide (positions not given here)) [CD16A EETI-II 19]”, for which the S/N was 18.2.
The same measure, in the same setting: for “GCDDPWGMAMPCKQDSDCLAGCVCGPNGFCG (disulfide (positions not given here)) [CD16A EETI-II 17]” the value was 23.4.
Turning to “GCGQAAVPCKQDSDCLAGCVCDPWGWCD (disulfide (positions not given here)) [CD16A EETI-II 29]”, the S/N was found to be 23.7.
For “GCQWIQQPCKQDSDCLAGCVCHESPWCG (disulfide (positions not given here)) [CD16A EETI-II 38]”, the S/N is 17.4.
Sequence “GCWGPWGPEHCKQDSDCLAGCVCGPNGFCG (disulfide (positions not given here)) [CD16A EETI-II 26]” showed a S/N of 18.3.
“GCQWQVEECKQDSDCLAGCVCWHSPYCG (disulfide (positions not given here)) [CD16A EETI-II 41]” came in with a S/N of 18.8.
Consider “GCDMPSWDNVWPCKQDSDCLAGCVCGPNGFC (disulfide (positions not given here)) [CD16A EETI-II 28]”, for which the S/N came to 19.8.
In turn, “GCIATVDHCKQDSDCLAGCVCEPFHVCG (disulfide (positions not given here)) [CD16A EETI-II 4]” displayed a S/N of 20.2.
Regarding “GCVETYVDCKQDSDCLAGCVCEPVQYCG (disulfide (positions not given here)) [CD16A EETI-II 12]”, the S/N came out at 18.5.
“GPTQSPXGSCGGIGYSGPTVCASGTTCQVLNPYLSQCLPGAS (disulfide) [CD16A CBD 4]” returned a S/N of 16.8.
On the same count and under the same terms, the value for “GPTQSVWGSCGGIGYSGPTVCASGTTCQVLNPYMSACLPGAS (disulfide (positions not given here)) [CD16A CBD 1]” was 21.0; that for “GCPRILMRCKQDPDCLAGCVCDEEQLCG (disulfide (positions not given here)) [CD16A EETI-II 1]” was 25.4; that for “GCSGNAMNCKQDSDCLAGCVCDPWGKCD (disulfide (positions not given here)) [CD16A EETI-II 25]” was 19.7.
As to “GCQWHEMTCKQDSDCLAGCVCWESPWCG (disulfide (positions not given here)) [CD16A EETI-II 36]”, the S/N is on record as 15.9.
Sequence “GCQWDPWGVQMNCKQDSDCLAGCVCGPNGFC (disulfide (positions not given here)) [CD16A EETI-II 34]” displayed a S/N of 19.6.
Same read-out and setting: for “GCWDPWGPMSCKQDSDCLAGCVCGPNGFCG (disulfide (positions not given here)) [CD16A EETI-II 18]” the value was 12.9; for “GPTQSMGGSCGGIGYSGPTVCASGTTCQVLDPYISMCLPGAS (disulfide (positions not given here)) [CD16A CBD 5]”, 16.5; for “GCPRILMRCKQDSDCLAGYVCDPWGVCD (disulfide (positions not given here)) [CD16A EETI-II 30]”, 23.2.

For the next assay, the system named is EpCAM. As to the kind of experiment: Spot phage ELISA, EpCAM. The class given is binding, human. Conditions: spot phage ELISA signal-to-noise on EpCAM.
On to “GPTQSHYGQCGGEGYKGAIVCSGTTCQQTKLQGSQCLPGAS (disulfide (positions not given here)) [EpCAM CBD 75]”, for which the S/N amounted to 7.7.
“GPTQSHYGQCGGRGYWGMAICSGTTCQAQTRMISQCLPGAS (disulfide (positions not given here)) [EpCAM CBD 42]” returned a S/N of 11.4.
On the same count and under the same terms, the value for “GPTQSHYGQCGGTGYVGAHVCSGTTCQFVYRDFSQCLPGAS (disulfide (positions not given here)) [EpCAM CBD 48]” was 10.5.
In turn, “GPTQSHYGQCGGGGYYGAISCSGTTCQPVRLIRSQCLPGAS (disulfide (positions not given here)) [EpCAM CBD 37]” yielded a S/N of 13.0.
“GCPRILMRCKQDSDCQWFCG (disulfide (positions not given here)) [EpCAM EET I-II 12]” showed a S/N of 20.9.
For “GPTQSHYGQCGGNGYMGVISCSGTTCQEIQMQRSQCLPGAS (disulfide (positions not given here)) [EpCAM CBD 90]”, the S/N was 4.8.
The sequence “GPTQSHYGQCGGAGYVGTIKCSGTTCQYVLKPQSQCLPGAS (disulfide (positions not given here)) [EpCAM CBD 54]” registered a S/N of 9.4.
In turn, “GCSFPLIRCKQDSDCQLVVLWSKRFCG (disulfide (positions not given here)) [EpCAM EET I-II 2]” registered a S/N of 23.6.
“GPTQSHYGQCGGLGYQGGMMCSGTTCQYVPIWRSQCLPGAS (disulfide (positions not given here)) [EpCAM CBD 17]”: the S/N came to 18.6.
In turn, “GCPRILMRCKQDSDCLAGCVCENGIMCG (disulfide (positions not given here)) [EpCAM EET I-II 25]” gave a S/N of 18.6.
On to “GPTQSHYGQCGGGGYPGAIMCSGTTCQFVMAHKSQCLPGAS (disulfide (positions not given here)) [EpCAM CBD 77]”, for which the S/N was found to be 7.5.
The same measure, in the same setting: for “GPTQSHYGQCGGKGYPGAIVCSGTTCQLVQSWRSQCLPGAS (disulfide (positions not given here)) [EpCAM CBD 63]” the value was 8.7.
